The results in this text go back to PubChem BioAssay AID463204 (Broad Institute, 2010).

SMILES strings stand for the structures. Activity calls are given as the source filed them.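 How the source made its calls: active means AC50 no more than ten times the top concentration tested, that is within one log above it; inconclusive means flat curve fit with activity between 30% and 70%, or invalid poor fit; inactive means AC50 beyond ten times the top tested dose.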

This assay deals with S. cerevisiae Mot1-301 ts growth rescue, BacTiter-Glo ATP luminescence. The experiment in a line: growth rescue of Mot1-301 ts yeast, confirmation, SUMOylation pathway inhibitor project, whole organism, S. cerevisiae, Mot1-301 ts mutant, luminescence, dose retest (AID 463204).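 Further: growth at restrictive 38.5 degrees C of Mot1-301 OY566 strain; actives raise luminescence by restoring growth of the ts mutant at high temperature.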

With `CNC(=O)Nc1cc(NC(=O)NC)cc(C(F)(F)F)c1`, the AC50 was > 42 µM (inactive). The result for `COc1ccc(-c2nnc(SCC(=O)N3CCCCC3)o2)cc1` reads > 42 µM (inactive); that for `CCNc1ccc(S(=O)(=O)N(C)C)cc1NCC(=O)Nc1ccccc1Br`, > 42 µM (inactive); that for `CC(C)CCNC(=O)Cn1c(=O)oc2cc(S(=O)(=O)N3CC(C)CC(C)C3)ccc21` (stereo not drawn), > 42 µM (inactive).

For the molecule `COc1ccc(-n2c3c(cc(C(=O)NCC(=O)c4ccccc4)c2=O)C(=O)CC(C)(C)C3)cc1`, the AC50 was > 42 µM (inactive).

`CCOC(=O)c1cnc2c(C)c(Cl)ccc2c1N1CCOCC1`: the AC50 was > 42 µM (inactive). Turning to `CCOC(=O)CSc1cc(C)nc2ccc(OC)cc12`, the AC50 was > 42 µM (inactive). The result for `Cc1c(Cl)cccc1NC(=S)NCCCN(C)C` reads > 42 µM (inactive). For `Cc1cc(C)cc(N(CC(=O)Nc2cccc(C)n2)S(=O)(=O)c2c(C)noc2C)c1`, the AC50 was > 42 µM (inactive). The result for `O=C(CSCc1ccc(Cl)cc1)N1CCCCC1` reads > 42 µM (inactive); that for `CC(C)NC(=O)COc1ccc(S(=O)(=O)N(C)Cc2ccccc2)cc1`, > 42 µM (inactive); that for `CC1Cc2ccccc2N1C(=O)CNc1cccc(S(=O)(=O)N2CCCC2)c1` (stereo not drawn), > 42 µM (inactive).

On to `NC(=O)C1CCCN(C(=S)Nc2cccc3ccccc23)C1` (stereo not drawn), for which the AC50 is > 42 µM (inactive). Take `CCC(C)(C)NC(=O)C(c1ccc(C)cc1)N(CC1CCCO1)C(=O)CNC(=O)c1cccs1` (stereo not drawn): the AC50 was > 42 µM (inactive). For `Cc1ccc(NC(=O)C(=O)NCC2CCCN2S(=O)(=O)c2cccs2)cc1` (stereo not drawn), the AC50 was > 42 µM (inactive).

Take `O=c1c2ccccc2ncn1Cc1ccc2c(c1)OCO2`: the AC50 is > 42 µM (inactive). The result for `Cc1c(NP(=O)(c2ccc(Br)cc2)c2ccc(Br)cc2)c(=O)n(-c2ccccc2)n1C` reads > 42 µM (inactive); that for `CCOC(=O)c1c(C)[nH]c2c1cc(O)c1ccccc12`, > 42 µM (inactive). For `CC(C)CCn1c(C(C)O)nc2ccccc21` (stereo not drawn), the AC50 is > 42 µM (inactive).

With `O=C(C1CCN(S(=O)(=O)N2CCC3(CC2)OCCO3)CC1)N1CCC(Cc2ccccc2)CC1`, the AC50 was > 42 µM (inactive). The result for `CS(=O)(=O)N(CC(=O)N1CCCC1)c1cccc(Cl)c1Cl` reads > 42 µM (inactive); that for `Cc1ccc(C(=O)O)cc1N=Cc1cc(Br)cc(Br)c1O`, 2.45 µM.

As for `COc1ccccc1NC(=O)NCCc1c[nH]c2ccccc12`, the AC50 is > 42 µM (inactive).

For the molecule `Oc1ccccc1-c1cc(C(F)(F)C(F)F)[nH]n1`, the AC50 is > 42 µM (inactive). For `O=C(CCSc1ccccc1)Nc1ncccn1`, the AC50 was > 42 µM (inactive). The result for `Cc1cc(C)n(C(=O)c2ccccc2[N+](=O)[O-])n1` reads > 42 µM (inactive); that for `CC(C(=O)Nc1ccccc1-c1ccccc1)N1CCN(Cc2ccccc2)CC1` (stereo not drawn), > 42 µM (inactive); that for `CC(C)CC(=O)Nc1ccc(C(=O)CN2C(=O)NC3(CCOc4ccccc43)C2=O)cc1` (stereo not drawn), > 42 µM (inactive).

Take `CC(C)Sc1ccc(C(=O)Nc2ccc(F)cc2F)cn1`: the AC50 is > 42 µM (inactive). On to `CCCn1c(SC(C)C(=O)NCC2CCCO2)nc2sc(CC)cc2c1=O` (stereo not drawn), for which the AC50 was > 42 µM (inactive). The result for `CCN1CCCC1CNC(=O)Cn1cnc2ccc(S(=O)(=O)N3CCC(C)CC3)cc2c1=O` (stereo not drawn) reads > 42 µM (inactive); that for `CCOC(=O)C1CCN(CC(O)COCc2ccccc2)CC1` (stereo not drawn), > 42 µM (inactive); that for `CCC(=O)Nc1nc(CC(=O)Nc2ccccc2OC)cs1`, > 42 µM (inactive). Turning to `COc1ccc(N=C2SC(C(=O)O)CC(=O)N2Cc2ccc(OC)c(OC)c2)cc1` (stereo not drawn), the AC50 is > 42 µM (inactive). The result for `Cc1nc(CCNC(=O)c2ccccc2)cs1` reads > 42 µM (inactive); that for `Cc1ccc(C(=O)N/C(=C\c2cccs2)C(=O)NCCc2c[nH]c3ccccc23)cc1`, > 42 µM (inactive). The result for `CCOc1ccc(S(=O)(=O)N2CCN(CC(O)COc3cccc([N+](=O)[O-])c3)CC2)cc1` (stereo not drawn) reads > 42 µM (inactive); that for `CCOc1ccc(N(C(C)C(=O)NC(C)CC)S(C)(=O)=O)cc1` (stereo not drawn), > 42 µM (inactive). The result for `C[C@@]12C(=O)Nc3ccc(F)cc3C(=O)N1[C@H]1c3ccccc3OC[C@@H]1[C@@H]2c1ccccc1` reads 3.24 µM; that for `Cc1ccccc1C(=O)NN(C)c1nc2ccccc2nc1C(F)(F)F`, > 42 µM (inactive). Consider `Nc1nc(-c2ccc(Cl)cc2)nc(-c2ccc(Cl)cc2)n1`, for which the AC50 is > 42 µM (inactive). The result for `Fc1ccccc1-n1cc(-c2ccccc2)[nH]c1=S` reads > 42 µM (inactive). The result for `CC(C(=O)NCCN1CCOCC1)(c1ccccc1)c1ccccc1` reads > 42 µM (inactive); that for `Cc1ccc(-c2noc(C3CCCN(S(=O)(=O)c4ccc5ccccc5c4)C3)n2)o1` (stereo not drawn), > 42 µM (inactive).

Take `C=CCN(C(=O)CNC(=O)c1ccco1)C(C(=O)NC1CCCCC1)c1ccccc1` (stereo not drawn): the AC50 is > 42 µM (inactive).

For the molecule `CCOc1c(Cl)cc(CNCC(O)c2ccccc2)cc1OC` (stereo not drawn), the AC50 was > 42 µM (inactive). For `CCOC(=O)c1c(CN2CCCCC2)n(C)c2cc(Br)c(O)c(CN(C)C)c12`, the AC50 was > 42 µM (inactive). The result for `COc1ccc(C(=O)CSc2nnc(CNC(=O)c3ccccc3)n2C)cc1` reads > 42 µM (inactive); that for `CC(CN1CCCCCC1)C(=O)NN` (stereo not drawn), > 42 µM (inactive).

For the molecule `CC(C)(C)NC(=O)C1Cc2ccccc2CN1S(=O)(=O)c1ccc(F)cc1` (stereo not drawn), the AC50 was > 42 µM (inactive). Turning to `NC(=O)CN1CCOCCN(CC(N)=O)CCOCC1`, the AC50 is > 42 µM (inactive). As to `COc1cc(/C=C(\C#N)C(=O)Nc2ccc(C(=O)O)cc2)ccc1OC(=O)c1cccc(F)c1`, the AC50 is > 42 µM (inactive). The result for `CC(NC(=O)C12CC3CC(CC(O)(C3)C1)C2)c1ccccc1` (stereo not drawn) reads > 42 µM (inactive); that for `NC(=S)N/N=C/c1cccc(O)c1O`, > 42 µM (inactive); that for `O=C(CN1CCN(Cc2ccc(F)cc2)CC1)NCc1ccccc1`, > 42 µM (inactive). For `CCN(CC)CCNC(=O)CCn1c(=S)[nH]c2cc3c(cc2c1=O)OCO3`, the AC50 is > 110 µM (inactive). Consider `COc1cc(CN2CCC(Oc3cc(C(=O)NC4CC4)ccc3OC)CC2)cc(OC)c1`, for which the AC50 is 34.8 µM. The result for `O=C(CN1CCN(C(=O)c2ccccc2)CC1)Nc1ncc(Br)cc1Br` reads > 42 µM (inactive); that for `CC(C)Cc1cc(CN2CCC(CO)(Cc3ccccc3)CC2)[nH]n1`, > 42 µM (inactive). The result for `CS(=O)(=O)N(CCc1ccccc1)CC(=O)NCc1cccnc1` reads > 42 µM (inactive); that for `OC(c1ccccc1)(C1CCCCC1)C(CN1CCOCC1)c1ccccc1` (stereo not drawn), 13.9 µM.

Take `CCn1c(SCC(=O)NC2CCCCC2)nnc1C(C)NC(=O)c1ccccc1F` (stereo not drawn): the AC50 was > 42 µM (inactive). The result for `Cc1c(NC(=O)C(C)Sc2nnc(-c3ccccc3)o2)c(=O)n(-c2ccccc2)n1C` (stereo not drawn) reads > 42 µM (inactive); that for `COCc1nnc(NC(=O)CC(C)C)s1`, > 42 µM (inactive); that for `NNC(=O)c1oc2nc(-c3ccccc3)cc(-c3ccccc3)c2c1N`, > 42 µM (inactive). Turning to `Cc1c(C(=O)NC(=S)Nc2ccccc2N2CCCC2)cccc1[N+](=O)[O-]`, the AC50 is > 42 µM (inactive).

On to `O=C(NCc1ccccn1)C1Nc2ccc(C(F)(F)F)cc2C2C=CCC12` (stereo not drawn), for which the AC50 was > 42 µM (inactive). The result for `Cc1cc(NC(=O)CSc2ncn(-c3ccccc3)n2)no1` reads > 42 µM (inactive); that for `CN(C)CCOC(=O)CCc1ccccc1`, > 42 µM (inactive); that for `CCOC(=O)c1sc(NC(=O)CSc2n[nH]c(-c3ccc(Cl)cc3Cl)n2)c(C#N)c1C`, > 42 µM (inactive). The result for `O=C(NCc1ccco1)c1ccc(Br)c(S(=O)(=O)N2CCCCC2)c1` reads > 42 µM (inactive); that for `O=C(COc1cnc2ccccc2n1)NCCC1=CCCCC1`, > 42 µM (inactive). The result for `O=C(O)c1ccc(COc2c(F)c(F)cc(F)c2F)cc1` reads > 42 µM (inactive); that for `CC1CC(C)(C)N(C(=O)CN2C(=O)CCC2=O)c2ccccc21` (stereo not drawn), > 42 µM (inactive). With `COc1ccc(Cl)cc1C(=O)NCCc1ccc(S(=O)(=O)NC(=O)NC2CCCCC2)cc1`, the AC50 was > 42 µM (inactive).

Regarding `Cn1c(=O)c2c(ncn2CC(=O)OCC(=O)Nc2ccc(Cl)cc2)n(C)c1=O`, the AC50 is > 42 µM (inactive). The result for `Cc1ccc(S(=O)(=O)/N=C(/Nc2ccc([N+](=O)[O-])cc2[N+](=O)[O-])c2ccccc2)cc1` reads 15.8 µM. With `COCCn1c(=NC(=O)c2ccc(S(=O)(=O)N3CCOCC3)cc2)sc2cc(S(N)(=O)=O)ccc21`, the AC50 was > 42 µM (inactive). Regarding `COc1ccc(N2CCN(CCCNC(=O)C(=O)c3c(C)[nH]c4ccccc34)CC2)cc1`, the AC50 is > 21 µM (inactive). Turning to `COC(CNC(=O)c1cn(C)c2ccc(S(=O)(=O)N3CCOCC3)cc2c1=O)OC`, the AC50 was > 42 µM (inactive). As to `O=C(C1CCC(CNc2c(N3CCCCC3)c(=O)c2=O)CC1)N1CCN(C2CCCCC2)CC1` (stereo not drawn), the AC50 is > 42 µM (inactive).

Consider `CCc1ccc2nc(-c3cccc(C)c3)nc(SCC(=O)NCC3CCCO3)c2c1` (stereo not drawn), for which the AC50 was > 42 µM (inactive).

As for `CC(C)C(=O)Nc1ccc(-c2nc3cccnc3o2)cc1`, the AC50 is > 42 µM (inactive). The result for `Cc1ccc2c(c1)N(CC(=O)NCCCN1CCN(C)CC1)C(=O)CO2` reads > 42 µM (inactive); that for `O=C(Cc1ccccc1)N1CCCC1c1ccccc1` (stereo not drawn), > 42 µM (inactive). The result for `Cc1cc(C)n2nc(SCC(=O)NC3CCCC(C)C3C)nc2n1` (stereo not drawn) reads > 42 µM (inactive). Consider `O=C(N/N=C/C(Br)=C/c1ccccc1)c1n[nH]c2c1CCC2`, for which the AC50 was 6.68 µM. The result for `Fc1ccc(-c2nnc3ccc(N4CCCC4)nn23)cc1` reads > 42 µM (inactive).
